Laboratory results reported in the NIST ThermoML archive (doi:10.1016/j.jct.2008.09.018).
Numbers after ± are expanded uncertainties.

Tests used:
[1] = Liquid; for mass density: Vibrating tube method; for speed of sound: Pulse-echo method; for viscosity: Capillary tube (Ostwald / Ubbelohde) method
[2] = refractive index (Na D-line) (dimensionless); settings: 298.15 K; 101.33 kPa; Liquid; Standard Abbe refractometry
[3] = xn = mol fraction of the nth substance listed; settings: 101 kPa, Liquid, x1 = 1; for speed of sound: Pulse-echo method; for viscosity: Capillary tube (Ostwald / Ubbelohde) method; for mass density: Vibrating tube method

OCCO [1,2-ethanediol]
[1]
Settings	mass density [kg/m3]	speed of sound [m/s]	viscosity [mPa·s]
283.15 K, 101.33 kPa	1120.32 ± 0.18	–	–
285.64 K, 101.33 kPa	1118.6 ± 0.18	–	–
290.64 K, 101.33 kPa	1115.12 ± 0.17	–	–
293.14 K, 101.33 kPa	1113.37 ± 0.17	–	–
293.15 K, 101 kPa	–	1666.7 ± 1.4	–
295.64 K, 101.33 kPa	1111.62 ± 0.17	–	–
298.15 K, 101.33 kPa	–	1654.9 ± 1.4	16.95 ± 0.14
300.65 K, 101.33 kPa	1108.12 ± 0.17	–	–
303.15 K, 101 kPa	1106.46 ± 0.17	1643.1 ± 1.4	13.83 ± 0.1
303.15 K, 101.33 kPa	1106.37 ± 0.17	–	–
305.64 K, 101.33 kPa	1104.61 ± 0.17	–	–
308.15 K, 101 kPa	–	1631.2 ± 1.4	11.44 ± 0.083
310.65 K, 101.33 kPa	1101.07 ± 0.17	–	–
313.14 K, 101.33 kPa	1099.3 ± 0.17	–	–
313.15 K, 101 kPa	1099.23 ± 0.17	1619.3 ± 1.4	9.565 ± 0.071
315.65 K, 101.33 kPa	1097.52 ± 0.17	–	–
320.64 K, 101.33 kPa	1093.95 ± 0.17	–	–
323.15 K, 101.33 kPa	1092.15 ± 0.17	–	–

Settings	refractive index
[2]	1.4307 ± 0.0005

OCCO [1,2-ethanediol] + CCCCCCCCCO
[3]
Settings	mass density [kg/m3]	speed of sound [m/s]	viscosity [mPa·s]
293.15 K	–	1666.7 ± 1.4	–
298.15 K	–	1654.9 ± 1.4	16.95 ± 0.12
303.15 K	1106.46 ± 0.17	1643.1 ± 1.4	13.83 ± 0.1
308.15 K	–	1631.2 ± 1.4	11.44 ± 0.083
313.15 K	1099.23 ± 0.17	1619.3 ± 1.4	9.565 ± 0.071

CCCCCCCCCO [nonan-1-ol]
[1]
Settings	mass density [kg/m3]	speed of sound [m/s]	viscosity [mPa·s]
283.15 K, 101.33 kPa	834.614 ± 0.25	–	–
285.64 K, 101.33 kPa	832.923 ± 0.25	–	–
288.15 K, 101.33 kPa	831.224 ± 0.25	–	–
290.65 K, 101.33 kPa	829.521 ± 0.25	–	–
293.14 K, 101.33 kPa	827.816 ± 0.25	–	–
293.15 K, 101 kPa	–	1381.6 ± 1.6	–
295.64 K, 101.33 kPa	826.106 ± 0.25	–	–
298.14 K, 101.33 kPa	824.391 ± 0.25	–	–
298.15 K, 101.33 kPa	824.48 ± 0.26	1364.4 ± 1.6	9.494 ± 0.084
300.65 K, 101.33 kPa	822.671 ± 0.25	–	–
303.14 K, 101.33 kPa	820.949 ± 0.25	–	–
303.15 K, 101 kPa	821.05 ± 0.25	1347.4 ± 1.6	7.994 ± 0.068
305.64 K, 101.33 kPa	819.22 ± 0.25	–	–
308.14 K, 101.33 kPa	817.486 ± 0.25	–	–
308.15 K, 101 kPa	817.57 ± 0.25	1330.5 ± 1.6	6.713 ± 0.057
310.64 K, 101.33 kPa	815.748 ± 0.25	–	–
313.15 K, 101 kPa	814.19 ± 0.25	1313.6 ± 1.6	5.657 ± 0.05
313.15 K, 101.33 kPa	814.001 ± 0.25	–	–
315.65 K, 101.33 kPa	812.251 ± 0.25	–	–
318.15 K, 101.33 kPa	810.496 ± 0.25	–	–
320.65 K, 101.33 kPa	808.73 ± 0.25	–	–
323.15 K, 101.33 kPa	806.96 ± 0.25	–	–

Settings	refractive index
[2]	1.4323 ± 0.0005
